The source of these data is ChEMBL document CHEMBL1201862, “PubChem BioAssay data set” (2004).

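1) Cells in 96-well plates. 2) Compound, 48 h, 5 concentrations. 3) Linear interpolation between surrounding doses. 4) Unreached endpoint = highest concentration. At the GI50, growth is halved.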 The source made the active and inactive calls. Rule as the data show it: active = GI50 up to about 1.1 µM and inactive = higher.

Some test systems named below: ACHN; COLO 205; EKVX; HCC 2998; HCT-116; HL-60; MDA-MB-435; MDA-N; NCI-H226; NCI-H460; NCI/ADR-RES; OVCAR-5; OVCAR-8; RXF 393; SK-MEL-28; SK-MEL-2; SK-OV-3; SW-620; UACC-257.
Common to all, as to assay: DTP human tumour cell line panel, 48 h

With `O=C(NNC(=O)c1ccccc1SSc1ccccc1C(=O)NNC(=O)c1ccccc1S)c1ccccc1S`, the GI50 (in general, the concentration at which growth is held to half of that of the control) in the assay on ACHN was 19.3 µM (inactive); in the assay on COLO 205, 36.4 µM (inactive); in the assay on EKVX it was 15 µM (inactive); in the assay on HCC 2998, 48.2 µM (inactive); with HCT-116, 7.18 µM (inactive); with HL-60, 1.73 µM (inactive). The GI50 was 16.1 µM (inactive) with MDA-MB-435; 20 µM (inactive) in the assay on MDA-N; 42.4 µM (inactive) in the assay on NCI-H226; 10.4 µM (inactive) in the assay on NCI-H460; 20 µM (inactive) in the assay with NCI/ADR-RES; 44.5 µM (inactive) with OVCAR-5. The GI50 in the assay with OVCAR-8 was 16.3 µM (inactive); in the assay on RXF 393 it was 64.9 µM (inactive); in the assay with SK-MEL-28 it was 24.3 µM (inactive); in the assay on SK-MEL-2, 23.7 µM (inactive); with SK-OV-3, 46.5 µM (inactive); in the assay on SW-620, 12 µM (inactive). Further, the GI50 in the assay with UACC-257 was 27.7 µM (inactive).

As for `C=C(C=O)c1c2c(nc3ccccc13)C(=O)c1ccccc1C2=O`, the GI50 was 0.434 µM (active) in the assay with ACHN; 1.1 µM (active) in the assay on COLO 205; 1.19 µM (inactive) in the assay on EKVX; 2.75 µM (inactive) with HCC 2998; 0.619 µM (active) with HCT-116; 0.31 µM (active) in the assay on HL-60. Moreover, the GI50 is 0.273 µM (active) in the assay with MDA-MB-435; 0.202 µM (active) in the assay on MDA-N; 0.966 µM (active) with NCI-H226; 0.581 µM (active) with NCI-H460; 0.265 µM (active) in the assay with NCI/ADR-RES; 1.9 µM (inactive) in the assay with OVCAR-5. Moreover, the concentration for 50% growth inhibition (GI50) is 0.434 µM (active) in the assay with OVCAR-8; 0.304 µM (active) with RXF 393; 0.684 µM (active) with SK-MEL-28; 1.37 µM (inactive) in the assay with SK-MEL-2; 2.9 µM (inactive) with SK-OV-3; 0.518 µM (active) in the assay on SW-620. The GI50 with UACC-257 is 1.49 µM (inactive).

On to `Cc1c(C)c(C)c(-n2c(=O)n(C)c(=O)n2-c2cc(C(C)(C)C)cc(C(C)(C)C)c2O)c(C)c1C`, for which the GI50 was 12.2 µM (inactive) in the assay with ACHN; 7.19 µM (inactive) with COLO 205; 10.5 µM (inactive) in the assay with EKVX; 9.93 µM (inactive) in the assay with HCC 2998; 5.79 µM (inactive) in the assay on HCT-116; 3.04 µM (inactive) in the assay on HL-60. Also, the GI50 with MDA-MB-435 is 11.9 µM (inactive); in the assay on MDA-N it was 10.5 µM (inactive); in the assay on NCI-H226, 8.32 µM (inactive); in the assay on NCI-H460, 11.4 µM (inactive); in the assay with NCI/ADR-RES, 8.38 µM (inactive); in the assay on OVCAR-5, 13.3 µM (inactive). For the same compound, the GI50 was 10.4 µM (inactive) in the assay with OVCAR-8; 2.97 µM (inactive) in the assay on RXF 393; 13.7 µM (inactive) with SK-MEL-28; 6.47 µM (inactive) with SK-MEL-2; 12.4 µM (inactive) in the assay with SK-OV-3; 13.6 µM (inactive) in the assay on SW-620. Besides, the GI50 in the assay with UACC-257 was 9.66 µM (inactive).

Consider `CC1=C[C@H]([C@H]2C=C(C)C(C(N)=O)=CN2Cc2c(Cl)cccc2Cl)N(Cc2c(Cl)cccc2Cl)C=C1C(N)=O`, for which the GI50 with ACHN, with COLO 205, in the assay with EKVX, in the assay with HCC 2998, in the assay on HCT-116 and with HL-60 was > 75 µM (inactive) each time. For the same compound, the GI50 was > 75 µM (inactive) in the assay with MDA-MB-435; 48.9 µM (inactive) with MDA-N; > 75 µM (inactive) with NCI-H226; > 75 µM (inactive) in the assay on NCI-H460; > 75 µM (inactive) in the assay with NCI/ADR-RES; > 75 µM (inactive) with OVCAR-5. In addition, the GI50 with OVCAR-8 was 52.7 µM (inactive); in the assay with RXF 393, 74.5 µM (inactive); in the assay on SK-MEL-28, > 75 µM (inactive); in the assay on SK-MEL-2 it was > 75 µM (inactive); in the assay with SK-OV-3 it was > 75 µM (inactive); with SW-620 it was > 75 µM (inactive). Also, the GI50 with UACC-257 was 73.8 µM (inactive).

Consider `O=c1[nH]c2cc(C(F)(F)F)ccc2nc1CBr`, for which the GI50 with ACHN was 7.19 µM (inactive); in the assay with COLO 205 it was 8.02 µM (inactive); with EKVX, 15.8 µM (inactive); with HCC 2998, 17.8 µM (inactive); in the assay with HCT-116, 13.5 µM (inactive); with HL-60, 2.69 µM (inactive). Besides, the GI50 in the assay on MDA-MB-435 is 11.4 µM (inactive); with MDA-N, 12 µM (inactive); with NCI-H226 it was 7.87 µM (inactive); in the assay on NCI-H460, 13.9 µM (inactive); in the assay with NCI/ADR-RES, 17.4 µM (inactive); in the assay with OVCAR-5, 14.1 µM (inactive). The GI50 is 10.4 µM (inactive) with OVCAR-8; 12.4 µM (inactive) in the assay on RXF 393; 15.1 µM (inactive) with SK-MEL-28; 12.2 µM (inactive) in the assay with SK-MEL-2; 18.5 µM (inactive) with SK-OV-3; 9.59 µM (inactive) in the assay on SW-620. In addition, in the assay on UACC-257, the GI50 is 14.7 µM (inactive).

As for `Clc1ccc(Nc2nc(Cl)c3nc[nH]c3n2)cc1Cl`, the GI50 in the assay on ACHN is 24.9 µM (inactive); in the assay on COLO 205, 18.6 µM (inactive); with EKVX, 1.97 µM (inactive); in the assay with HCC 2998, 16.9 µM (inactive); in the assay with HCT-116, 29.5 µM (inactive); in the assay on HL-60 it was 18.2 µM (inactive). Besides, the GI50 in the assay with MDA-MB-435 was 26.9 µM (inactive); with MDA-N, 39.8 µM (inactive); with NCI-H226, 38.4 µM (inactive); with NCI-H460 it was 14.5 µM (inactive); in the assay with NCI/ADR-RES it was 35.6 µM (inactive); with OVCAR-5, 48.8 µM (inactive). In addition, the GI50 in the assay with OVCAR-8 was 35.4 µM (inactive); in the assay on RXF 393, 21 µM (inactive); in the assay with SK-MEL-2, 21.8 µM (inactive); in the assay with SK-OV-3, 33.2 µM (inactive); in the assay with SW-620, 38 µM (inactive); in the assay on UACC-257, 31.8 µM (inactive).

Turning to `CC1CC(N)=Nc2ccccc2N1` (configuration not stated), the GI50 in the assay with ACHN, in the assay on COLO 205, in the assay on EKVX, with HCC 2998, with HCT-116 and with HL-60 was > 100 µM (inactive) in each case. Further, the GI50 in the assay on MDA-MB-435, with MDA-N, in the assay with NCI-H226, in the assay with NCI/ADR-RES, in the assay with OVCAR-5 and with OVCAR-8 was > 100 µM (inactive) in each case. The GI50 in the assay on RXF 393, in the assay on SK-MEL-28, in the assay on SK-MEL-2, in the assay on SK-OV-3, in the assay with SW-620 and with UACC-257 was > 100 µM (inactive) throughout.

With `N#CCN(Cc1ccccc1)[C@H]1CCC[C@]1(O)/C=C/c1ccc2c(c1)OCO2`, the GI50 with ACHN is 42 µM (inactive); in the assay on COLO 205, 15.6 µM (inactive); in the assay on EKVX it was 76.9 µM (inactive); in the assay on HCC 2998, 18.4 µM (inactive); in the assay on HL-60, 16.2 µM (inactive); in the assay on MDA-MB-435 it was 20 µM (inactive). For the same compound, the GI50 is 17.6 µM (inactive) in the assay with MDA-N; 18.4 µM (inactive) with NCI-H226; 18.3 µM (inactive) in the assay with NCI-H460; 19.3 µM (inactive) with NCI/ADR-RES; 39.3 µM (inactive) in the assay with OVCAR-5; 17.1 µM (inactive) in the assay on OVCAR-8. Moreover, the GI50 with RXF 393 was 23.6 µM (inactive); in the assay with SK-MEL-28, 17.3 µM (inactive); with SK-MEL-2, 20 µM (inactive); in the assay with SK-OV-3, 46.6 µM (inactive); with SW-620 it was 20.8 µM (inactive); in the assay on UACC-257, 22.7 µM (inactive).

Take `CC(C)(C)c1cc(OCc2nnc3sc(Cc4ccccc4)nn23)c(Cl)cc1OCc1nnc2sc(Cc3ccccc3)nn12`: the GI50 in the assay with ACHN is 24.9 µM (inactive); in the assay on COLO 205, 21.6 µM (inactive); in the assay on EKVX it was 27.3 µM (inactive); with HCC 2998, 4.4 µM (inactive); with HCT-116 it was 24.3 µM (inactive); in the assay with HL-60, 23.8 µM (inactive). The GI50 was 24.1 µM (inactive) with MDA-MB-435; 24.5 µM (inactive) in the assay on MDA-N; > 100 µM (inactive) in the assay with NCI-H226; 17.7 µM (inactive) with NCI-H460; 76 µM (inactive) in the assay with NCI/ADR-RES; 29 µM (inactive) in the assay with OVCAR-5. Besides, the GI50 is 17.1 µM (inactive) in the assay with OVCAR-8; 18.1 µM (inactive) in the assay with RXF 393; 24.2 µM (inactive) in the assay with SK-MEL-28; 37.8 µM (inactive) in the assay on SK-MEL-2; 34 µM (inactive) in the assay with SK-OV-3; 26.7 µM (inactive) in the assay on SW-620. Further, in the assay on UACC-257, the GI50 was 21.3 µM (inactive).

In the case of `COc1cc(NC=C2C(=O)OC(C)(C)OC2=O)c(OC)c(C)c1OC`, the GI50 with ACHN, with COLO 205, in the assay on EKVX, with HCC 2998, in the assay with HCT-116 and in the assay with HL-60 was > 100 µM (inactive) throughout. The GI50 with MDA-MB-435, in the assay on MDA-N, in the assay with NCI-H226, in the assay on NCI-H460, in the assay on NCI/ADR-RES and with OVCAR-5 was > 100 µM (inactive) throughout. In addition, the GI50 in the assay with OVCAR-8, in the assay with RXF 393, in the assay with SK-MEL-28, in the assay on SK-MEL-2, in the assay on SK-OV-3 and in the assay on SW-620 was > 100 µM (inactive) each time. Moreover, the GI50 in the assay on UACC-257 is > 100 µM (inactive).
